According to patent US10209236B2, “Cell analyzer system, cell analyzer program, and cell analyzing method” (Sony Corporation, priority 2012, dated 2019):

How the values were obtained:
Type in all cases: cell-based
[1] = test system: neuron cells (iPS Academia Japan) that were differentiation of iPS cells; experiment: Fluorescence intensity vibration (Ca2+ imaging with Fluo8) of neuron cells, FFT power spectra; settings: for spontaneous membrane potential vibration of the neural cells: confirmed by the vibration characteristics of the fluorescence intensity vibration
Experimental: Effects of GABA and L-Glu on the neuron cells and the neuron cell network were evaluated using the fluorescence intensity vibration. The GABA is a physiological active substance that gives inhibitory stimulation to the neuron cells. The L-Glu gives exciting stimulation.
Fluo8 (fluorescent labeling) used in Ca^2+ imaging was entrained in the neuron cells (iPS Academia Japan) that were differentiation of iPS cells. The GABA or the L-Glu was administered to incubation liquid. Fluorescence of the Fluo8 generated from each neuron cell was image-captured at 2 flame/sec for 1 minute to provide each cell image.
The fluorescence intensity vibration (vibration information) was extracted from each cell image, taking the image range including one neuron cell as the extraction range. FIG. 9(a) is a graph of fluorescence intensity vibration extracted from the cell image of the neuron cells to which the GABA is administered. FIG. 9(b) is a graph of fluorescence intensity vibration extracted from the cell image of the neuron cells to which the L-Glu is administered.
Then, the FFT analysis was applied to fluorescence intensity vibration to calculate power spectra (vibration characteristics). FIG. 10(a) is a graph of power spectrum calculated from the fluorescence intensity vibration ([…]) of the neuron cells to which the GABA is administered. FIG. 10(b) is a graph of power spectrum calculated from the fluorescence intensity vibration ([…]) of the neuron cells to which the L-Glu is administered.

[2] = test system: neuron cells (iPS Academia Japan) that were differentiation of iPS cells; experiment: Motion vibration of neuron cells, FFT power spectra; settings: for spontaneous membrane potential vibration of the neural cells: confirmed by the vibration characteristics of the motion vibration
Experimental: Effects of GABA and L-Glu administered on the neuron cells were evaluated. The GABA or the L-Glu was administered to incubation liquid of the neuron cells (iPS Academia Japan) that were differentiation of iPS cells. Each neuron cell was image-captured at 2 flame/sec for 1 minute to provide each cell image.
In each cell image, the motion vibration was extracted using the image range including one neuron cell as the extraction range. FIG. 23(a) is a graph of the motion vibration extracted from the cell image of the neural cells to which the GABA is administrated. FIG. 23(b) is a graph of the motion vibration extracted from the cell image of the neural cells to which the L-Glu is administrated.
Then, the FFT analysis was applied to the motion vibration to calculate power spectra. FIG. 24(a) is a graph of power spectrum calculated from the motion vibration (FIG. 23(a)) of the neuron cells to which the GABA is administered. FIG. 24(b) is a graph of power spectrum calculated from the motion vibration (FIG. 23(b)) of the neuron cells to which the L-Glu is administered.

[3] = test system: neural cells derived from iPS cells where a sufficient neural cell network was formed; experiment: Evaluation of cytotoxicity by motion vibration; settings: whole image as extraction range; 5 μm of memantine with 500 nM or 5000 nM of Aβ peptide; incubated for five days; FIG. 28
Experimental: Effects of a cytotoxic substance administered on the neuron cells were evaluated using the motion vibration of the cells. As a cytotoxic model, the cytotoxicity of Aβ peptide considered as a cause of the Alzheimer disease and a neuroprotective action of an anti-alzheimer's disease drug, i.e., memantine were evaluated. As the cytotoxicity of Aβ peptide, there are a synapse failure by acting on synapses and a cell failure entrained in the cells. The cell group of the neural cells derived from iPS cells where a sufficient neural cell network was formed was prepared. A predetermined amount of Aβ peptide or Aβ peptide and memantine was administered to each cell group to incubate for five days. After five days, the cell image of each cell group was captured to extract the motion vibration from the whole image and each cell as the extraction range and the vibration characteristics were calculated. FIGS. 27(a) to (f) are graphs of the vibration characteristics of the motion vibration extracted from the extraction range including the whole image. […] FIG. 28 is a graph of average values of the vibration power extracted from the motion vibration in each cell group shown in FIGS. 27(a) to (e) in each pixel included in the extraction range. […] On the other hand, when memantine was administered, the vibration power is not decreased. […]

[4] = extraction range including one neuron cell, compared with neuron cells to which the L-Glu is administered, FIGS. 10(a) and 10(b)
[5] = extraction range including one neuron cell, compared with neuron cells to which the L-Glu is administered, FIGS. 24(a) and 24(b)

| Structure (SMILES) | spontaneous membrane potential vibration of the neural cells [1] | amplitude of the fluorescence intensity vibration [1, 4] | frequency of the fluorescence intensity vibration [1, 4] | spontaneous membrane potential vibration of the neural cells [2] | amplitude of the motion vibration [2, 5] | frequency of the motion vibration [2, 5] | vibration power of the cell group (motion vibration, average values in each pixel) [3] |
| --- | --- | --- | --- | --- | --- | --- | --- |
| NCCCC(=O)O [GABA] | changed | greater | lower | changed | greater | lower |  |
| N[C@@H](CCC(=O)O)C(=O)O [L-Glu] | changed |  |  | changed |  |  |  |
| CC12CC3CC(C)(C1)CC(N)(C3)C2 [memantine] |  |  |  |  |  |  | not decreased |
